Test results taken from patent US8114991B2, “Amino-1,3,5-triazines N-substituted with chiral bicyclic radicals, process for their preparation, compositions thereof, and their use as herbicides and plant growth regulators” (Bayer Cropscience AG, priority 2003, dated 2012).

Assays:
[1] = tested on: harmful plants such as Stellaria media, Lolium multiforum, Amaranthus retroflexus, Sinapis alba, Avena sativa and Setaria viridis; experiment: Pre-emergence effect on weeds (greenhouse pot test); type: in vivo; settings: application rate of 1 kg or less of active ingredient per hectare; scored after 3 to 4 weeks by comparison with untreated controls
Method in brief: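 Seeds or rhizome pieces sown in sandy loam; test compounds (wettable powder or emulsion concentrate) applied pre-emergence to soil surface as aqueous suspension/emulsion at various dosages, 600 to 800 l water/ha. Greenhouse; plant/emergence damage scored visually after 3 to 4 weeks versus untreated controls.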

[2] = tested on: harmful plants such as Sinapis alba, Echinochloa crus-galli, Lolium multiflorum, Stellaria media, Cyperus iria, Amaranthus retroflexus, Setaria viridis, Avena …; experiment: Post-emergence effect on weeds (greenhouse pot test); type: in vivo; settings: application rate of 2 kg or less of active ingredient per hectare; treated in the three-leaf stage; scored after approx. 3 to 4 weeks by comparison with untreated controls

Structure (SMILES)	pre-emergence control of harmful plants (plant or emergence damage scored visually) [1]	herbicidal post-emergence activity against harmful plants (scored visually) [2]
Nc1nc(N[C@@H]2CCCc3ccccc32)nc(C2(Cl)CC2)n1 [Compound 8.187]	very good pre-emergence control	very good herbicidal post-emergence activity
Cc1ccc2c(c1)[C@H](Nc1nc(N)nc([C@@H](C)F)n1)CC2 [Compound 1.2]	very good pre-emergence control	very good herbicidal post-emergence activity
Cc1ccc2c(c1)CC(C)C2Nc1nc(N)nc(C(C)F)n1 (stereo not drawn) [Compound 4.2]	very good pre-emergence control	very good herbicidal post-emergence activity
Cc1cc2c(cc1C)[C@H](Nc1nc(N)nc(C(C)(C)F)n1)CC2 [Compound 8.201]	very good pre-emergence control	very good herbicidal post-emergence activity
Cc1ccc2c(c1)[C@H](Nc1nc(N)nc([C@@H](C)F)n1)[C@@H](C)C2 [Compound 2.2]	very good pre-emergence control	very good herbicidal post-emergence activity
C[C@@H](F)c1nc(N)nc(N[C@@H]2CCc3ccccc32)n1 [Compound 1.1]	very good pre-emergence control	very good herbicidal post-emergence activity
Cc1nc(N)nc(N[C@H]2c3cc(F)ccc3C[C@@H]2C)n1 [Compound 7.3]	very good pre-emergence control	very good herbicidal post-emergence activity
Cc1ccc2c(c1C)OCC[C@H]2Nc1nc(N)nc([C@@H](C)F)n1 [Compound 1.66]	very good pre-emergence control	very good herbicidal post-emergence activity
CC(F)c1nc(N)nc(NC2c3ccccc3CC2C)n1 (stereo not drawn) [Compound 6.1]	very good pre-emergence control	very good herbicidal post-emergence activity
C[C@H](F)c1nc(N)nc(N[C@@H]2CCOc3ccccc32)n1 [Compound 3.20]	very good pre-emergence control	very good herbicidal post-emergence activity
Nc1nc(N[C@@H]2CCc3ccccc32)nc(C2(F)CC2)n1 [Compound 8.160]	very good pre-emergence control	very good herbicidal post-emergence activity
Cc1ccc2c(c1)[C@H](Nc1nc(N)nc(C(C)C)n1)CC2 [Compound 8.67]	very good pre-emergence control	very good herbicidal post-emergence activity
C[C@H](F)c1nc(N)nc(N[C@H]2c3ccccc3C[C@@H]2C)n1 [Compound 4.1]	very good pre-emergence control	very good herbicidal post-emergence activity
COc1ccc2c(c1)[C@H](Nc1nc(N)nc([C@@H](C)F)n1)CC2 [Compound 1.69]	very good pre-emergence control	very good herbicidal post-emergence activity
CCCc1nc(N)nc(N[C@H]2c3ccccc3CC[C@@H]2C)n1 [Compound 7.57]	very good pre-emergence control	very good herbicidal post-emergence activity
